Tested on: Key Broadleaf Weed and Crop Species
Assay: Post-Emergent Test II (Table 5)
Type: in vivo
Settings: Abutilon theophrasti, post-emergence, 336 h, ABUTH: velvetleaf (Abutilon theophrasti), application rate 70 (kg ai/ha; footnote: g ai/ha), read-out: Visual Growth Reduction (%) 14 Days After Application ABUTH
Method in brief: (§1)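 Plants grown in a greenhouse (~15 h photoperiod, 23-29° C day) to first or second true leaf stage were sprayed post-emergence at 187 L/ha with compound in acetone/DMSO-based aqueous spray containing crop oil concentrate and surfactant, applied at a high rate plus ½× to 1/16× serial rates. Injury was scored visually 14 days later, 0-100% versus untreated plants.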

Question: How did the pest or weed control at 70 g/ha turn out when `Nc1c(F)c(-c2ccc(C(F)F)nc2)nc(C(=O)O)c1Cl` [Compound 27, 4-amino-5-chloro-6′-(difluoromethyl)-3-fluoro-[2,3′-bipyridine]-6-carboxylic acid] was run?
Answer: 85 to 94%

Same assay, conditions: Abutilon theophrasti, post-emergence, 336 h, ABUTH: velvetleaf (Abutilon theophrasti), application rate 140 (kg ai/ha; footnote: g ai/ha), read-out: Visual Growth Reduction (%) 14 Days After Application ABUTH

Question: Which pest or weed control at 140 g/ha does the source give for `Nc1c(F)c(-c2ccc(C(F)F)nc2)nc(C(=O)O)c1Cl` [Compound 27, 4-amino-5-chloro-6′-(difluoromethyl)-3-fluoro-[2,3′-bipyridine]-6-carboxylic acid] here?
Answer: 95 to 100%

Same assay, conditions: Amaranthus retroflexus, post-emergence, 336 h, AMARE: redroot pigweed (Amaranthus retroflexus), application rate 70 (kg ai/ha; footnote: g ai/ha), read-out: Visual Growth Reduction (%) 14 Days After Application AMARE

Question: With `Nc1c(F)c(-c2ccc(C(F)F)nc2)nc(C(=O)O)c1Cl` [Compound 27, 4-amino-5-chloro-6′-(difluoromethyl)-3-fluoro-[2,3′-bipyridine]-6-carboxylic acid] as the molecule, how does the pest or weed control at 70 g/ha read?
Answer: 95 to 100%

Same assay, conditions: Amaranthus retroflexus, post-emergence, 336 h, AMARE: redroot pigweed (Amaranthus retroflexus), application rate 140 (kg ai/ha; footnote: g ai/ha), read-out: Visual Growth Reduction (%) 14 Days After Application AMARE

Question: Which pest or weed control at 140 g/ha does the source give for `Nc1c(F)c(-c2ccc(C(F)F)nc2)nc(C(=O)O)c1Cl` [Compound 27, 4-amino-5-chloro-6′-(difluoromethyl)-3-fluoro-[2,3′-bipyridine]-6-carboxylic acid] here?
Answer: 95 to 100%

Same assay, conditions: Brassica napus, post-emergence, 336 h, BRSSS: oilseed rape, canola (Brassica napus), application rate 70 (kg ai/ha; footnote: g ai/ha), read-out: Visual Growth Reduction (%) 14 Days After Application BRSSS

Question: For `Nc1c(F)c(-c2ccc(C(F)F)nc2)nc(C(=O)O)c1Cl` [Compound 27, 4-amino-5-chloro-6′-(difluoromethyl)-3-fluoro-[2,3′-bipyridine]-6-carboxylic acid], which pest or weed control at 70 g/ha is on record?
Answer: 85 to 94%

Same assay, conditions: Brassica napus, post-emergence, 336 h, BRSSS: oilseed rape, canola (Brassica napus), application rate 140 (kg ai/ha; footnote: g ai/ha), read-out: Visual Growth Reduction (%) 14 Days After Application BRSSS

Question: Which pest or weed control at 140 g/ha does the source give for `Nc1c(F)c(-c2ccc(C(F)F)nc2)nc(C(=O)O)c1Cl` [Compound 27, 4-amino-5-chloro-6′-(difluoromethyl)-3-fluoro-[2,3′-bipyridine]-6-carboxylic acid] here?
Answer: 85 to 94%

Same assay, conditions: Chenopodium album, post-emergence, 336 h, CHEAL: lambsquarters (Chenopodium album), application rate 70 (kg ai/ha; footnote: g ai/ha), read-out: Visual Growth Reduction (%) 14 Days After Application CHEAL

Question: `Nc1c(F)c(-c2ccc(C(F)F)nc2)nc(C(=O)O)c1Cl` [Compound 27, 4-amino-5-chloro-6′-(difluoromethyl)-3-fluoro-[2,3′-bipyridine]-6-carboxylic acid] was tested. Which pest or weed control at 70 g/ha did it give?
Answer: 95 to 100%

Same assay, conditions: Chenopodium album, post-emergence, 336 h, CHEAL: lambsquarters (Chenopodium album), application rate 140 (kg ai/ha; footnote: g ai/ha), read-out: Visual Growth Reduction (%) 14 Days After Application CHEAL

Question: How did the pest or weed control at 140 g/ha turn out when `Nc1c(F)c(-c2ccc(C(F)F)nc2)nc(C(=O)O)c1Cl` [Compound 27, 4-amino-5-chloro-6′-(difluoromethyl)-3-fluoro-[2,3′-bipyridine]-6-carboxylic acid] was run?
Answer: 95 to 100%

Same assay, conditions: Euphorbia heterophylla, post-emergence, 336 h, EPHHL: wild poinsettia (Euphorbia heterophylla), application rate 70 (kg ai/ha; footnote: g ai/ha), read-out: Visual Growth Reduction (%) 14 Days After Application EPHHL

Question: For `Nc1c(F)c(-c2ccc(C(F)F)nc2)nc(C(=O)O)c1Cl` [Compound 27, 4-amino-5-chloro-6′-(difluoromethyl)-3-fluoro-[2,3′-bipyridine]-6-carboxylic acid], which pest or weed control at 70 g/ha is on record?
Answer: 95 to 100%

Same assay, conditions: Euphorbia heterophylla, post-emergence, 336 h, EPHHL: wild poinsettia (Euphorbia heterophylla), application rate 140 (kg ai/ha; footnote: g ai/ha), read-out: Visual Growth Reduction (%) 14 Days After Application EPHHL

Question: How did the pest or weed control at 140 g/ha turn out when `Nc1c(F)c(-c2ccc(C(F)F)nc2)nc(C(=O)O)c1Cl` [Compound 27, 4-amino-5-chloro-6′-(difluoromethyl)-3-fluoro-[2,3′-bipyridine]-6-carboxylic acid] was run?
Answer: 95 to 100%

Same assay, conditions: Helianthus annuus, post-emergence, 336 h, HELAN: sunflower (Helianthus annuus), application rate 70 (kg ai/ha; footnote: g ai/ha), read-out: Visual Growth Reduction (%) 14 Days After Application HELAN

Question: How did the pest or weed control at 70 g/ha turn out when `Nc1c(F)c(-c2ccc(C(F)F)nc2)nc(C(=O)O)c1Cl` [Compound 27, 4-amino-5-chloro-6′-(difluoromethyl)-3-fluoro-[2,3′-bipyridine]-6-carboxylic acid] was run?
Answer: 95 to 100%

Same assay, conditions: Helianthus annuus, post-emergence, 336 h, HELAN: sunflower (Helianthus annuus), application rate 140 (kg ai/ha; footnote: g ai/ha), read-out: Visual Growth Reduction (%) 14 Days After Application HELAN

Question: `Nc1c(F)c(-c2ccc(C(F)F)nc2)nc(C(=O)O)c1Cl` [Compound 27, 4-amino-5-chloro-6′-(difluoromethyl)-3-fluoro-[2,3′-bipyridine]-6-carboxylic acid] was tested. Which pest or weed control at 140 g/ha did it give?
Answer: 95 to 100%

Same assay, conditions: Viola tricolor, post-emergence, 336 h, VIOTR: wild pansy (Viola tricolor), application rate 70 (kg ai/ha; footnote: g ai/ha), read-out: Visual Growth Reduction (%) 14 Days After Application VIOTR

Question: `Nc1c(F)c(-c2ccc(C(F)F)nc2)nc(C(=O)O)c1Cl` [Compound 27, 4-amino-5-chloro-6′-(difluoromethyl)-3-fluoro-[2,3′-bipyridine]-6-carboxylic acid] was tested. Which pest or weed control at 70 g/ha did it give?
Answer: 60 to 74%

Same assay, conditions: Viola tricolor, post-emergence, 336 h, VIOTR: wild pansy (Viola tricolor), application rate 140 (kg ai/ha; footnote: g ai/ha), read-out: Visual Growth Reduction (%) 14 Days After Application VIOTR

Question: With `Nc1c(F)c(-c2ccc(C(F)F)nc2)nc(C(=O)O)c1Cl` [Compound 27, 4-amino-5-chloro-6′-(difluoromethyl)-3-fluoro-[2,3′-bipyridine]-6-carboxylic acid] as the molecule, how does the pest or weed control at 140 g/ha read?
Answer: 60 to 74%

Tested on: Key Grass and Sedge Weeds as well as Grass Crops
Assay: Post-Emergent Test II (Table 6)
Type: in vivo
Settings: post-emergence, 336 h, CYPSS, 70 g ai/ha, 14 days after application, read-out: Visual Growth Reduction (%) 14 Days After Application CYPSS
Method in brief: as §1

Question: Which pest or weed control at 70 g/ha does the source give for `Nc1c(F)c(-c2ccc(C(F)F)nc2)nc(C(=O)O)c1Cl` [Compound 27, 4-amino-5-chloro-6′-(difluoromethyl)-3-fluoro-[2,3′-bipyridine]-6-carboxylic acid] here?
Answer: 95 to 100%

From US10765114B2, “4-amino-6-(pyridyl and 2-substitutedphenyl)-picolinates and 6-amino-2-(pyridyl and 2-substitutedphenyl)-pyrimidine-4-carboxylates and their use as herbicides” (Dow AgroSciences LLC, priority 2013, dated 2020)
